Test results taken from US20200400650A1, “METHODS FOR DECONTAMINATING CIRCUITS FOR PRODUCING GLUCOSE POLYMERS AND HYDROLYSATES OF GLUCOSE POLYMERS” (Roquette Freres, priority 2012, published 2020).
Entries after “also recorded” stand apart in the source; their conditions may differ.

Tests used:
[1] = target: T1, hTLR2 receptor (Homo sapiens, UniProt O60603); assay: HEK-Blue hTLR2 cell response test (SEAP reporter activity); type: cell-based
T1 construct: host or cells: HEK-Blue hTLR2 (HEK293-derived, SEAP reporter)
T1 sequence (O60603 19-784 limits assumed): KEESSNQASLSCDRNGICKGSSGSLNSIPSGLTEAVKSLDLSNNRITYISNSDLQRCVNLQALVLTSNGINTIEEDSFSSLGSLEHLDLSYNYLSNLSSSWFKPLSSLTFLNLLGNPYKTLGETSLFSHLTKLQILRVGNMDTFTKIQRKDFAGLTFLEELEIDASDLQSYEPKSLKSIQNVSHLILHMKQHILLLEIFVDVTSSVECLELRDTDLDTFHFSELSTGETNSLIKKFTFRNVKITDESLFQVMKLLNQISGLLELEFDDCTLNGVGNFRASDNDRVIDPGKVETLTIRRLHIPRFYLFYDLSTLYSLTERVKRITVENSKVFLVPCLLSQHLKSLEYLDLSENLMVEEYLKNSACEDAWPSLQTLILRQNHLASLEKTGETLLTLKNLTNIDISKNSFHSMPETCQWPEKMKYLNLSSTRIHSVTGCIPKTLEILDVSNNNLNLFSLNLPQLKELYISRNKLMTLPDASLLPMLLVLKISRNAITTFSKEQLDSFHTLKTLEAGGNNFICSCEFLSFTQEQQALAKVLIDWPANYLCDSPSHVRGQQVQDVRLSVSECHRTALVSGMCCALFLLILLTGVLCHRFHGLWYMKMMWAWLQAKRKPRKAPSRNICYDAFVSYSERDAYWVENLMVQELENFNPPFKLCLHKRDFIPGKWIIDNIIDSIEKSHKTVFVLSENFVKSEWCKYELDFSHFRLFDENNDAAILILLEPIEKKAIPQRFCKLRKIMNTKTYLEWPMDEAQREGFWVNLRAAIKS
Source text: (§1) The cell lines, in particular HEK-Blue™ (InvivoGen), are lines modified by stable transfection with a vector encoding an innate immunity receptor, in particular human (h) receptors. They are also cotransfected with the reporter gene, in particular a reporter gene producing SEAP, the synthesis of which is under the direct control of the signaling pathway associated with the receptor overexpressed. Preferably, this reporter gene encodes a colored or fluorescent protein or a protein of which the activity can be measured with or without substrate. […] The use of these lines makes it possible to target certain families of molecules of microbial origin according to the receptor expressed. Preferably, cell lines expressing either hTLR2 or hTLR4 or hNOD2 are used. In addition, a control line which expresses no innate immunity receptor is also used.
(§2) For the tests according to the present invention, four lines are preferably used: • HEK-Blue™ hTLR2 line: this line expressing the hTLR2 receptor responds specifically to TLR2 agonists (PGNs and lipopeptides especially). […]
(§3) The dose-response curves are produced with standard agonist molecules: LPS, PGN, LTA, zymosan and MDP. The Raw-Blue™ and HEK-Blue™ TLR2, TLR4, NOD2 and Null lines are incubated with increasing concentrations of agonists, and the cell response is measured by quantifying the SEAP activity (FIGS. 1-5). […]

[2] = target: T2, hTLR4 receptor (Homo sapiens, UniProt O00206+Q9Y6Y9); assay: HEK-Blue hTLR4 cell response test (SEAP reporter activity); type: cell-based
T2 construct: host or cells: HEK-Blue hTLR4 (HEK293-derived, SEAP reporter)
T2 sequence (O00206 24-839): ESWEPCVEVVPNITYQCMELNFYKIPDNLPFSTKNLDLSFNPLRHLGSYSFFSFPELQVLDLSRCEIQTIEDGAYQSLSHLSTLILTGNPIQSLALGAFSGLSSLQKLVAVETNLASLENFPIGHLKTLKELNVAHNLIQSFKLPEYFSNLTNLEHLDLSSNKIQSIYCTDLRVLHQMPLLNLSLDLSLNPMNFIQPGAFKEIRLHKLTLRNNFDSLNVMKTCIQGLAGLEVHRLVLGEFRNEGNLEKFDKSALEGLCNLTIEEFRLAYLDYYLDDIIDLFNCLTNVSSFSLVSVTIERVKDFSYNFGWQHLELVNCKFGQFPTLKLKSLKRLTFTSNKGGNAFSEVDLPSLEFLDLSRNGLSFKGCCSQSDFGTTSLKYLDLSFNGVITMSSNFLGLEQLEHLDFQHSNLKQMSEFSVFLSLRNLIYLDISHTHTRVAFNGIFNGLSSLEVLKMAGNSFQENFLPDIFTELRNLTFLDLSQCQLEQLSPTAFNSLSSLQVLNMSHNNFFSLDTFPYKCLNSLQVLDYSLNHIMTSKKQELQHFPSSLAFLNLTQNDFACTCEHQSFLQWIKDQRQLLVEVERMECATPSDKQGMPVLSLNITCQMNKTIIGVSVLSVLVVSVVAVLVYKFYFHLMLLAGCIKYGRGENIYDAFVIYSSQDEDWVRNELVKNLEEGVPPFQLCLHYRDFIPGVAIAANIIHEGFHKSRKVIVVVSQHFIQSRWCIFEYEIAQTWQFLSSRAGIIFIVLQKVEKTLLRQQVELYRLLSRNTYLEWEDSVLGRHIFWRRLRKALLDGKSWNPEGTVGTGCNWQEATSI
T2 sequence (Q9Y6Y9 17-160 limits assumed): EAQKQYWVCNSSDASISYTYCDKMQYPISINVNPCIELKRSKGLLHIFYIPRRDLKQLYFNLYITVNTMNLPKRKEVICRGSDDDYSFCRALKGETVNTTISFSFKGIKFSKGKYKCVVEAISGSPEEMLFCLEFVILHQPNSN
Source text: as §1, §2, §3

[3] = test system: Raw-Blue™ line; assay: Raw-Blue cell inflammatory response test (SEAP reporter activity); type: cell-based, mouse
Source text: The Raw-Blue™ line is a line of mouse macrophages transfected with a reporter gene producing a secreted form of alkaline phosphatase (SEAP: secreted embryonic alkaline phosphatase), the transcription of which is under the direct control of the inflammatory signaling pathways. The advantage of this line is that it naturally expresses virtually all the innate immunity receptors, including the TLR2, TLR4 and NOD2 receptors. Thus, these cells will respond to the majority of inflammatory contaminants, and the response will be monitored by measuring the enzymatic activity of the SEAP produced. Preferably, this line is used in the test at a cell density of approximately 0.5×10^6 cells/well. The bringing of the preparation of glucose polymers or of hydrolysates thereof into contact with the cells lasts approximately 16 to 24 h.
The dose-response curves are produced with standard agonist molecules: LPS, PGN, LTA, zymosan and MDP. The Raw-Blue™ and HEK-Blue™ TLR2, TLR4, NOD2 and Null lines are incubated with increasing concentrations of agonists, and the cell response is measured by quantifying the SEAP activity (FIGS. 1-5).
For the cell tests, the samples are diluted to 1/10 in the cell culture medium (final concentration: 3.2% (w/v)). […]

[4] = target: T3, hNOD2 receptor (Homo sapiens, UniProt Q9HC29); assay: HEK-Blue hNOD2 cell response test (SEAP reporter activity); type: cell-based; settings: increasing concentrations of agonist
T3 construct: host or cells: HEK-Blue hNOD2 (HEK293-derived, SEAP reporter)
T3 sequence (Q9HC29 whole entry): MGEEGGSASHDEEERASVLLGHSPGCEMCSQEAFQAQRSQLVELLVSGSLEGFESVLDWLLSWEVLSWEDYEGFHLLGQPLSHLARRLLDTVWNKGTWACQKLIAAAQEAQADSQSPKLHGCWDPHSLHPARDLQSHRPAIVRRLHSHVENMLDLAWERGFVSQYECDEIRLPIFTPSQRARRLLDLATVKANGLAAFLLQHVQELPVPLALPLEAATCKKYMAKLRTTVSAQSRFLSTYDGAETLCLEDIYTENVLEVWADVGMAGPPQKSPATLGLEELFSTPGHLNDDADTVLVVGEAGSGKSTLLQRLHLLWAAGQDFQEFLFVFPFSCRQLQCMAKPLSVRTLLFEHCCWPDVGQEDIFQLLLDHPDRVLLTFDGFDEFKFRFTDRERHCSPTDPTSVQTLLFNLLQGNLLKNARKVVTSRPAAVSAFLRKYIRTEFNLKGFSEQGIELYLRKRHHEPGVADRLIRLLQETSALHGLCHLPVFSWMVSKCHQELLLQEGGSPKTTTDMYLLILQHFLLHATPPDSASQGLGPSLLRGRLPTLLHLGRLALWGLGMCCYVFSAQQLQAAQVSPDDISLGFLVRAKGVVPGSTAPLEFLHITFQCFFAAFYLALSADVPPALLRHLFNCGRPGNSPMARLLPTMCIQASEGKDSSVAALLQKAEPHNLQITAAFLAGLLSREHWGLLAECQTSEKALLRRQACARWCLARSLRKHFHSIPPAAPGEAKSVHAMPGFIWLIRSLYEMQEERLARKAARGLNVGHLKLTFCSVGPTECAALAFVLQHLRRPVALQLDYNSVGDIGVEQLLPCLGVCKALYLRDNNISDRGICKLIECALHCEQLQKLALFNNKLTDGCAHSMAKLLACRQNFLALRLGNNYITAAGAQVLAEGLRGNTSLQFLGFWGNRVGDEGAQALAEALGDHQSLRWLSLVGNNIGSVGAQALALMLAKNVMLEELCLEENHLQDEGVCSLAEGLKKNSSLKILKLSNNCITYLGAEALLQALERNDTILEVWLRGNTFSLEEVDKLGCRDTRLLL
Source text: as §1, §2, §3

[5] = background statement; cited from earlier work
[6] = test system: Raw-Blue™ and HEK-Blue™ lines; assay: Assessment by sample of the inflammatory activities from the combined cell tests; type: cell-based; settings: overall assessment, FIG. 11
Procedure: The objective of these tests is to determine the pro-inflammatory reactivity and the nature of the contaminants present in the glucose polymer matrices and the batch of glucose polymer hydrolysate.
The analyses are carried out on: • Raw-Blue™ line: any contaminants with high reactivity for PGNs, • HEK-Blue™ hTLR2 line: high reactivity for PGNs, • HEK-Blue™ hTLR4 line: high reactivity for LPSs, • HEK-Blue™ hNOD2 line: MDP and PGN depolymerization products, • HEK-Blue™ Null2 line: control for absence of cell toxicity.

[7] = increasing concentrations of agonist, SEAP activity

With `CC(=O)N[C@H]1C(O)O[C@H](CO)[C@@H](O)[C@@H]1O[C@H](C)C(=O)N[C@@H](C)C(=O)N[C@H](CCC(=O)O)C(N)=O` (mixture of isomers) [MDP, muramyl dipeptide] the “HEK-Blue hTLR2 cell response to standard agonists” value [1, 7] was “no reactivity”, the “HEK-Blue hTLR4 cell response to standard agonists” value [2, 7] was “no reactivity” and the “Raw-Blue cell response to standard agonists” value [3, 7] was “do not respond”. The “HEK-Blue hNOD2 cell response to standard agonists” value [4] was “strong reactivity”.
For formyl-Met-Leu-Phe tripeptide [f-MLP], the “Induction of a cytokine response per se” value [5] is listed as “incapable of inducing a cytokine response per se”.
For `O.O=C[C@H](O)[C@@H](O)[C@H](O)[C@H](O)CO` [LYCADEX®, dextrose monohydrate], the “Assessment of inflammatory activity by sample” value [6] was “low-strength inflammatory activity”, the “HEK-TLR2 cell response induced by matrix” value ([1]; nonfiltered sample, 3.2% (w/v), monohydrate) was “do not trigger responses; also recorded: only barely or not at all active” and the “HEK-TLR4 cell response induced by matrix” value ([2]; nonfiltered sample, 3.2% (w/v)) was “do not trigger a significant response”. For the same compound, the “Raw cell response induced by matrix” value ([3]; nonfiltered sample, 3.2% (w/v)) was “trigger an inflammatory response”.
